# Data: a melting point compilation (Tetko et al.; mined from patent text by program, amines drawn as free bases though some values may be those of a salt)
row,melting point [°C],Compound
1,101,Cc1cc(-n2ccnc2)c2cccc(OCc3c(Cl)ccc(S(=O)(=O)N4CCCC4C(=O)NCC4CCN(C(=O)CC(=O)OC(C)(C)C)CC4)c3Cl)c2n1 (stereo unspecified)
2,208,Cn1c(=O)n(-c2cc(N)c(Cl)cc2F)c(=S)n1C
3,> 300,Cc1nc2nc(-c3ccc(Cl)cc3)nn2c(=S)n1C
4,74 to 76,Cc1oc(-c2ccco2)nc1COc1ccc(Cc2nc(-c3ccccc3)c(CCC(=O)O)o2)cc1
5,192 to 195,O=C(Nc1ccc2c(c1)OCCO2)c1ccc(-c2cccs2)cc1
6,185 to 187,CC1Cc2cc3c(cc2C(c2ccc([N+](=O)[O-])cc2)=NN1C1=NCCS1)OCO3 (stereo unspecified)
7,316 to 319,CN(C)C1CCc2c(c3ccccc3n2CC(=O)O)C1 (stereo unspecified)
8,243 to 244,O=C1N(Cc2ccc(O)cc2)c2ccccc2C12COc1cc3c(cc12)OCCO3 (stereo unspecified)
9,140 to 141,CC(C)(CNc1ccnc2cc(Cl)ccc12)NCc1cc(C(F)(F)F)cc(C(F)(F)F)c1
10,233,O=S1(=O)c2ccccc2Cc2ccc(-c3nnn[nH]3)cc21
11,209 to 213,Cc1nc(-c2cccc(CN3C(=O)C4(COc5cc6c(cc54)CCO6)c4ccccc43)c2)no1 (stereo unspecified)
12,69 to 71,CC1(C)CC(N(CCO)CC(O)COc2ccc(C(C)(C)c3ccc(OCC(O)CN(CCO)C4CC(C)(C)NC(C)(C)C4)cc3)cc2)CC(C)(C)N1 (stereo unspecified)
13,275 to 277,CN1CC[C@@H](c2c(O)cc(O)c3c(=O)cc(-c4ccc([N+](=O)[O-])cc4)oc23)[C@@H]1CO
14,> 250,NS(=O)(=O)c1cncc(-c2cn(-c3cc(C(F)(F)F)cc(-c4ccc(C(F)(F)F)cc4)n3)cn2)c1
15,58 to 60,CC(C)(C)c1cnc(-c2nn(-c3ccc(F)cc3F)c3c2C2CCC3C2)o1 (stereo unspecified)
16,158 to 160,CCNc1nc(Cl)ccc1C(=O)O
17,83 to 85,CC1CCCN1CCCN1C(=C(C#N)C#N)N(CCCN2CCCC2C)c2ccccc21 (stereo unspecified)
18,276 to 280,Cc1cccc(NC(=O)C2=C(O)c3ccccc3S(=O)(=O)N2C)c(=O)c1
19,144 to 145,COc1ccc(N2CCN(C3CN(C4c5c(C)cc(C)c(C)c5OC4(C)C)CCN3c3ccccc3)CC2)cc1 (stereo unspecified)
20,213 to 216,Cn1ccnc1Sc1ccc(Nc2c(C#N)cnc3cc(/C=C/CCN4CCC(N5CCCC5)CC4)sc23)cc1Cl
21,184 to 186,CCCCc1ncc(/C=C(\Cc2ccc(OC)s2)C(=O)O)n1Cc1ccccc1Cl
22,158 to 160,Cc1cc(Cl)cc(C)c1NC(=O)Oc1ccccc1
23,228 to 230,COc1cc(OC)c2c(=O)[nH]c(-c3cc(C)c(OCCN4CCCC4)c(C)c3)nc2n1
24,149 to 151,CCSc1nc2c(C)sc(C(=O)OC)c2n1Cc1ccc(-c2ccccc2C#N)cc1

row,melting point [°C],Compound
1,145 to 147,CCOC(=O)N1CCc2nnc(NN)cc2C1
2,129 to 133,Cc1c(C)c2c(c(C)c1N)CC(C)(C(=O)N1CCc3c([nH]c4ccccc34)C1)O2 (stereo unspecified)
3,165 to 166,CCCc1ccnc2c(=O)[nH]c(-c3cc(S(=O)(=O)NCCN4CCOCC4)ccc3OCC)nc12
4,87 to 88,COC(=O)CCn1c(=O)n(CCN2CCN(c3cccc(C(F)(F)F)c3)CC2)c(=O)c2cscc21
5,170,Clc1cc(Cl)cc(-c2n[nH]cc2I)c1
6,118 to 120,CC(C)Cc1cc(C(N)=O)nn1C
7,147 to 149,Nc1ccc(Cl)c(C(=O)NCCC23CC4CC(CC(C4)C2)C3)c1
8,103 to 104,CCOC(=O)c1nc(C=Cc2cccc(C(F)(F)F)c2)oc1C
9,168 to 169,CCOC(=O)C(=O)Nc1ccc(Br)cc1[N+](=O)[O-]
10,92 to 95,COC(=O)C(Oc1cc(OCc2ccsc2)ccc1C#N)c1ccccc1Br (racemic)
11,< 40,CCOC(=O)Nc1ccccc1C(=O)OCC
12,154 to 156,CSc1c(C(Cc2ccccc2)C(=O)O)ccc2c3ccccc3n(Cc3ccccc3)c12 (stereo unspecified)
13,54.9,COc1ccc(-n2cnc(SC)n2)cc1
14,94 to 95,COCCOC(=O)C1=C(C)NC(C)=C(C(=O)OCCOC)C1c1ccccc1OC(F)F
15,138 to 141,CNc1ccccc1C(=O)NCCCn1ccnc1
16,103 to 104,C(=C\c1nc(COc2ccc(CCCCCn3cncn3)cc2)co1)/c1ccccc1
17,84 to 86,Cc1ccccc1CC(=NC#N)NC(NC(=O)Cc1cccnc1)C(C)(C)C (stereo unspecified)
18,275,Cc1cc(-c2ccc(Cl)cc2)nc(-n2cnc(-c3cccc(S(N)(=O)=O)c3)c2)n1
19,124 to 126,CCn1cc(C(c2ccc(Cl)cc2Cl)n2cncn2)c2cc(Br)ccc21 (stereo unspecified)
20,100 to 102,CCOCOC1(C(=O)CO)C(C)CC2C3CC(C)C4=CC(=O)C=CC4(C)C3C(O)CC21C (stereo unspecified)
21,355 to 358,Cn1nc(-c2cnc3[nH]cc(C(=O)NC4CCOCC4)c3n2)c2ccc(Cl)cc21
22,108 to 109,CC(C)(C)OC(=O)N1CCN(Cc2ccccc2)C[C@H]1C(c1ccccc1)c1ccccc1
23,133 to 134,CCc1cccc2c(S(=O)(=O)c3ccc(C)cc3)cnnc12
24,196 to 197,CCC(C)NC(=O)Nc1cc(-c2c(-c3ccc(F)c(C)c3)nc3cccnn23)ccn1 (stereo unspecified)

row,melting point [°C],Compound
1,172 to 174,O=C(O)CCC(=NO)c1ccc(-c2ccc(Cl)s2)cc1
2,88 to 89,OCc1cn(Cc2ccc(OCc3ccccc3)cc2)nc1-c1ccccc1
3,128 to 130,Cc1cn2ccnc(Cl)c2n1
4,305 to 310,O=C(O)c1ccc(-c2ccc3cc(OCc4ccccc4)c(C45CC6CC(CC(C6)C4)C5)cc3c2)cc1
5,294 to 295,Cn1cc(C(=O)c2sc(NC(=O)c3ccncc3)nc2-c2ccco2)ccc1=O
6,85 to 90,COC(=O)c1ccccc1NC(=O)N(C)C
7,165 to 167,Cc1c2cccccc-2c(-c2ccccc2)c1-c1ccc(S(C)(=O)=O)cc1
8,176 to 178,ClC(Cl)(Cl)c1nnc(C=Cc2ccc(C=Cc3ccccc3)cc2)o1
9,149 to 151,CC(C)(C)c1ccc(CN2CCC3(CC2)CC(=O)c2ccccc2O3)cc1
10,153 to 154,O=C1CC2(CCCC2)CC(=O)N1c1cccnc1
11,139 to 140,Cc1c(CCC2CC(OC3CCCCO3)CC(=O)O2)c2c(c(C)c1OC(=O)c1ccccc1)CC(C)(C)O2 (stereo unspecified)
12,199 to 200,COc1cccc(N2CCN(S(=O)(=O)c3ccc(/C=C/C(=O)NO)cc3)CC2)c1
13,120,COc1ccccc1[C@@]1(O)C[C@@H](C)C[C@@H]2CN(Cc3ccccc3)C[C@@H]21 (racemic)
14,90 to 101,CN1CC(C)(C)c2ccc(NC(=O)/C=C/c3ccc(C(C)(C)C)cc3)cc21
15,144,CC(C)(Oc1cccc(C(=O)c2ccc(Cl)cc2)c1)C(=O)O
16,95 to 96,CS(=O)(=O)N1CCC=CCC1
17,44 to 45,CCCN(CCC)C(=O)n1cnc(S(=O)(=O)CC)n1
18,146 to 148,COC(=O)c1ccc2cc(OC)c(OC)cc2c1-c1ccnc(Br)c1
19,132 to 135,CC(C)(C)c1cc2c(c(C(C)(C)C)c1)OC(=O)C2c1ccc(OCCO)cc1 (stereo unspecified)
20,150 to 154,CCn1c(C(C)NS(=O)(=O)c2ccc(Cl)c(Cl)c2)cnc1Oc1ccc2cc[nH]c2c1 (stereo unspecified)
21,119 to 121,CCCOC(=O)C1=C(C)NC(C)=C(C(=O)N[C@H](C(=O)OCC)C(C)C)[C@@H]1c1cccc([N+](=O)[O-])c1
22,220 to 221,CSc1ncc(Cc2cnc3ccccc3c2)c(=O)[nH]1
23,> 260,O=C1CCC2=C1C(c1cccc([N+](=O)[O-])c1)C1=C(CCCS1)N2 (stereo unspecified)
24,210 to 211,NC(=O)CNc1ncccc1NC(=O)c1cccc(Cl)c1

row,melting point [°C],Compound
1,117 to 118,CCOC(=O)c1cn(Cc2ccccc2)nc1OCc1ccc(OCc2nc(-c3ccco3)oc2C)c(OC)c1
2,122 to 123,O=C1CC(O)CC(/C=C/c2cccc(Cl)c2Cl)O1 (stereo unspecified)
3,> 260,O=C1c2nc3ccccn3c2C(=O)c2cccc(F)c21
4,146,CCC(C)N(C)C(=O)c1cc2ccccc2c(-c2cccs2)n1 (stereo unspecified)
5,262 to 265,O=C1NC(=O)C(c2cn3c4c(cccc24)CCC3)=C1c1ccc(OCc2ccccc2)cc1
6,226,COc1ccc(C(F)(F)F)cc1-n1c(=O)[nH]c2cc(C(F)(F)F)ccc21
7,239 to 240,CCOC(=O)C1=CNC2=C(C(=O)CCC2)C1c1nccs1 (stereo unspecified)
8,65 to 68,COc1ccc(OCC(O)CCCl)cc1 (stereo unspecified)
9,136 to 146,COc1cc(C(=O)NS(=O)(=O)c2ccccc2C)ccc1Cc1c(Cl)n(C)c2cc(Cl)c(CC(C)NC(=O)N(C)C)cc12 (stereo unspecified)
10,98 to 100,CCOC(=O)C(CC)C(=O)Nc1ccc(Br)cc1C (stereo unspecified)
11,144 to 146,CC(=O)C(Cl)=NNc1cccc(C)c1
12,77 to 79,CCCCCCCN(CCCCCS(=O)c1nc(-c2ccccc2)c(-c2ccccc2)[nH]1)C(=O)Nc1ccc(F)cc1F (stereo unspecified)
13,225 to 227,CC(=O)n1cc(C2C(=O)CC(C)(C)CC2=O)c2ccccc21
14,220 to 223,Cc1ccc(-c2cccc(/C=C/C(=O)Nc3ccc(CO)cc3)c2)cc1
15,227,CCOC(=O)c1c(N2CCN(C(=O)c3cccs3)CC2)c2cc(Cl)cnc2n(CC(=O)c2ccccc2)c1=O
16,148 to 150,COC(=O)CN(C1c2cc(Cl)ccc2OC(C)(C)C1O)S(C)(=O)=O (stereo unspecified)
17,68,OCCc1ccc(OCCN2CCCCC2)cc1
18,280 to 282,Nc1cccc(Nc2ncnc3[nH]cc(C(=O)c4ccccc4)c23)c1
19,216 to 218,COC(=O)c1cc2c([nH]c3ccc(Br)cc32)s1
20,177 to 181,Cc1ncc2cc(-c3c(Cl)cccc3Cl)c(NC(=O)N(C)C)nc2n1
21,83 to 86,Brc1cccc(Oc2ccccc2)n1
22,100,Cc1sc(-n2cccc2)c(C(=O)N2CCCC2)c1C
23,126,CC(C)(C)C(=N)Nc1ccccc1N1CCOCC1

row,Compound,melting point [°C]
1,COC(=O)CSC(c1ccccc1Cl)c1ccccc1Cl,90 to 92
